79 compounds from the METLIN SMRT retention time set (Domingo-Almenara et al. 2019) can be followed below.

This series in a line: gradient 5% acetonitrile 3 min, to 50% in 2 min, to 85% in 15 min, held 3 min, 100 µL/min. To be noted: column: Zorbax Extend-C18 2.1 x 50 mm; eluents: water / acetonitrile, 0.1% formic acid. Put shortly:
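Each retention time is based on an adduct peak selected computationally and verified by manual inspection. Measurements used HPLC–quadrupole time-of-flight mass spectrometry in positive and negative ionization mode on mixtures of ~100 pure standards. Chromatography ran on a Zorbax Extend-C18 column (2.1 × 50 mm, 1.8 μm) at 100 μL/min with water and acetonitrile, each containing 0.1% formic acid, and dead and dwell volumes of 40 μL and 900 μL.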
The compound `CCCN1C(=O)Cc2ccccc2C1C(=O)NCc1ccc(Br)cc1` (centres undefined) yielded an RP-LC retention time of 857 s.

With `O=C(Nc1ccc(F)cc1Cl)C1CCc2nc(N3CCOCC3)ncc2C1` (centres undefined), the RP-LC retention time stood at 793 s. On to `Cc1ccc(CNC(=O)c2nsc(C(=O)N3CCN(c4ccccn4)CC3)c2N)cc1`, for which the RP-LC retention time amounted to 681 s.

Take `CN1CCCn2cc(S(=O)(=O)Nc3cc(F)cc(F)c3)cc2C1=O`: the RP-LC retention time is 718 s. The figure for `Cc1cccc(C)c1NC(=O)Cn1nc2nc(N3CCCC(C)C3)ccn2c1=O` (centres undefined) is 787 s; for `Cc1c(CCC(=O)O)c(C)n2c(nc3ccccc32)c1C#N` it is 593 s; for `Cc1ccc(-c2ccc(-n3nc(C)c(S(=O)(=O)N4CCOCC4)c3C)nn2)cc1` it is 972 s.

With `CCOc1nc(OCC)c2cnn(C)c2n1`, the RP-LC retention time is 901 s. On to `CNC(=O)Nc1ccc(-c2nc(N3CC4CCC(C3)O4)c3cnn(C4CCC5(CC4)OCCO5)c3n2)cc1`, for which the RP-LC retention time is 794 s. For the compound `COc1ccccc1CC(=O)Nc1ccc2c(c1)Sc1ncccc1C(=O)N2C(C)C`, the RP-LC retention time was 855 s. The figure for `CN1C(=O)CN=C(c2ccccc2)c2cc([N+](=O)[O-])ccc21` is 869 s; for `CCn1nc(C)c(CCNC(=O)Cn2c3ccccc3c3cnn(C)c(=O)c32)c1C` it is 627 s. Then `Cc1nc(Cn2cccc2C(=O)Nc2ccc(F)cc2)no1`, with 815 s. The compound `O=C(NC1CC1)[C@@H]1C[C@H](Oc2cccnc2)CN1C(=O)C1CCC1` displayed an RP-LC retention time of 557 s. The figure for `Cc1ccc(CNC(=O)C2(C)CCN(S(=O)(=O)c3ccc(C)c(C)c3)CC2)cc1` is 1050 s. For `COC(=O)C1=CN(c2cc(Cl)c(OC)cc2OC)c2ccccc2S1(=O)=O`, the RP-LC retention time came out at 903 s. The figure for `Cc1ccc(NS(=O)(=O)c2c(C)sc(C)c2-c2cc(C(F)(F)F)on2)cc1` is 1190 s; for `COc1ccc(NC(=O)Nc2nccn(-c3ccc(C(C)C)cc3)c2=O)cc1OC` it is 1010 s.

As for `COc1ccc(NC(=O)CSc2cc(N3CCN(c4ccccc4OC)CC3)ncn2)cc1OC`, the RP-LC retention time worked out at 814 s. The figure for `O=C(Cc1cccc(F)c1)N1CCc2cc(-c3ccno3)ccc21` is 948 s. Then `Cc1ccc(NC(=O)N2CCC3(CC2)NC(=O)c2ccccc2O3)cc1`, with 762 s; and `CN(Cc1ccoc1)C(=O)NC1CCCC1`, with 763 s. The figure for `O=C1CCCN1c1ccc(Cn2nc3ccc(-c4ccc(Cl)cc4)nn3c2=O)cc1` is 742 s; for `O=C(Nc1cccnc1)c1cc(-c2ccnc(F)c2)ccc1OCc1ccccc1` it is 884 s; for `COCCN1C(=O)c2ccccc2C(C(=O)NCCCN2CCOCC2)C1c1cccs1` (centres undefined) it is 805 s. Compound `CCCCOc1ccc(NC(=O)N(Cc2ccccn2)Cc2ccco2)cc1` displayed an RP-LC retention time of 788 s. In turn, `CCCCC(=O)N1CCCN(C2=NS(=O)(=O)C(c3ccccc3)=C2C)CC1` gave an RP-LC retention time of 793 s. Then `Cc1c(C2CCN(C(=O)c3cc4ccccc4[nH]3)CC2)noc1N`, with 729 s; and `O=C1CC(NC(=O)C2(c3ccc(Cl)cc3)CCCC2)CN1` (centres undefined), with 678 s; and `CCc1ccc(-c2nc(C3CC(=O)N(c4ccc(Cl)cc4)C3)no2)cc1` (centres undefined), with 1020 s.

With `Cc1nc(-c2ccc(N3CCN(C(=O)COc4ccccc4)CC3)nc2)sc1C`, the RP-LC retention time was determined as 851 s.

Regarding `Cc1c(Cl)cccc1NC(=O)NCC(c1cccnc1)c1cn(C)c2ccccc12` (centres undefined), the RP-LC retention time stood at 773 s. The figure for `COc1ccc(C2Cn3nnc(-c4nc(-c5cccc(F)c5)no4)c3CO2)cc1` (centres undefined) is 1100 s; for `COc1cccc(C(=O)NC2CCN(c3cc(-c4ccc(Cl)cc4)[nH]n3)C2)c1OC` (centres undefined) it is 807 s. Consider `Cc1ccccc1Cn1c(CN2CCC(C(=O)N3CCCCCC3)CC2)cc2ccccc21`, for which the RP-LC retention time stood at 838 s. The figure for `CCc1ccc(NC(=O)Cn2c(=O)n(-c3ccc(F)cc3)c(=O)c3c2cc(C)n3C)cc1` is 888 s. `CCCNC(=O)c1csc(C(=O)NCC)n1` gave an RP-LC retention time of 670 s. The figure for `CCc1ccc(CNC(=O)C2CCCN(c3ccc(=O)n(-c4cccc(F)c4)n3)C2)cc1` (centres undefined) is 937 s; for `O=C(NCc1ccc2c(c1)OCO2)C1COC2(CCN(C(=O)C3CC3)CC2)N1C(=O)c1ccccc1` (centres undefined) it is 692 s. As for `CSc1cccc(N2C(=O)C3N=NN(Cc4nc(-c5ccc(C)c(C)c5)no4)C3C2=O)c1` (centres undefined), the RP-LC retention time amounted to 1100 s. The figure for `Cc1cc(NC(=O)Cn2ccn3nc(-c4ccccc4)c(CO)c3c2=O)no1` is 714 s; for `c1ccc2sc(C3(N4CCCC4)CCCCC3)cc2c1` it is 799 s; for `COc1ccc(-c2nc3cc(C)ccn3c2Nc2ccc3c(c2)OCO3)cc1` it is 646 s. Then `CC(Cc1cccs1)NC(=O)Cc1ccc(SC(C)C)cc1` (centres undefined), with 969 s; and `CN(CCc1noc(COc2ccc(Cl)cc2)n1)C(=O)NCCc1ccccc1`, with 965 s. Then `CC(C)NC(=O)c1ccc(OCC2CCCN(C(=O)c3ccc(N(C)C)cc3)C2)cc1` (centres undefined), with 818 s; and `Cc1ccc(-c2cc3c4nnc(SCC(=O)Nc5ccc(F)cc5Cl)n4ccn3n2)cc1C`, with 1010 s; and `CCOC(=O)N1CCN(c2cc(C(=O)O)c3cc(NC(=O)c4ccc(Cl)cc4)ccc3n2)CC1`, with 667 s. Turning to `Cc1ccc2c(NCc3ccc4c(c3)OCO4)c(-c3nc(C)no3)cnc2n1`, the RP-LC retention time came to 1070 s. The figure for `CCC(=O)Nc1ccc(-n2cnc(C(=O)NC(C)c3ccc(C)cc3)c2)nc1` (centres undefined) is 781 s; for `COc1cccc2cc(C(=O)NCc3cccnc3)oc12` it is 564 s; for `Cc1cc(S(=O)(=O)N2C[C@H](F)C[C@@H]2C(=O)N2CCOCC2)ccc1Cl` it is 753 s.

In turn, `O=C(CSc1ccc(-n2ccnc2)nn1)N1CCc2ccccc21` yielded an RP-LC retention time of 578 s. Then `COc1cccc(CC(=O)NC2CCN(c3cc(-c4cccs4)[nH]n3)C2)c1` (centres undefined), with 658 s; and `N#Cc1cccc(C(=O)N2CCc3cc(-c4ccno4)ccc32)c1`, with 724 s; and `Cc1ccc(-c2nc3cnccn3c2NCCC(=O)NC(C)c2cccs2)cc1` (centres undefined), with 734 s.

`CCn1cnc(S(=O)(=O)N2CCC(C(=O)N3CCN(c4ccccc4F)CC3)CC2)c1` returned an RP-LC retention time of 762 s.

`Cc1ccc(C(=O)c2cnc3cc4c(cc3c2N2CCN(C)CC2)OCO4)cc1C` displayed an RP-LC retention time of 581 s. Take `CCn1c(=O)n(CC(=O)NCCN2CCCC2)c(=O)c2cnc(-c3ccc(Cl)cc3)nc21`: the RP-LC retention time came out at 706 s. The figure for `CCCCN(C)C(=O)Cn1c(=O)c2cnc(-c3ccccc3)nc2n(C)c1=O` is 1000 s.

Consider `O=C(CN1C(=O)C(C(=O)N2CCCC2)Sc2ccccc21)NCc1ccc(Cl)cc1` (centres undefined), for which the RP-LC retention time stood at 948 s. The figure for `O=C(c1ccc(Cl)c(Cl)c1)N1CCN(c2ccc(-c3ccco3)nn2)CC1` is 733 s; for `O=C(CSc1ccc(N2CCCC(C(=O)NC3CC3)C2)nn1)NCCc1ccc(Cl)cc1` (centres undefined) it is 666 s.

`CCn1ccc(C(=O)N2CCC3(CC2)C(=O)N(C)c2ccccc23)n1`: the RP-LC retention time stood at 725 s.

`O=C(NC1CC1)C1CCN(c2nc3ccc(-c4ccccc4)nc3s2)CC1`: the RP-LC retention time turned out to be 865 s. Then `CCN(CC)S(=O)(=O)c1ccc2c(c1)CC(C(=O)NC1CCCCC1)N2C(C)=O` (centres undefined), with 839 s. Compound `COc1cccc(CNC(=O)CN2C(=O)NC(c3ccccc3Cl)C3=C2COC3=O)c1OC` (centres undefined) had an RP-LC retention time of 739 s. Then `CN(C)CCNC(=O)C1CCN(c2nc3ccc(-c4cccc(F)c4)nc3s2)CC1`, with 691 s; and `O=C(Nc1ccsc1-c1nnc(C2CC2)o1)c1ccsc1`, with 1170 s; and `CN(C)c1nc2cc(C(=O)NCC3CC3)sc2n1-c1ccccc1`, with 702 s.

Compound `O=C(Cn1c(=O)c2cc(-c3cccs3)nn2c2ncccc21)NCCc1ccccc1` yielded an RP-LC retention time of 829 s. The figure for `O=C(Nc1ccccc1C(F)(F)F)N1CCCC1c1nncn1-c1ccccc1` (centres undefined) is 736 s; for `CCCCN(C)C(=O)CN1C(=O)CCCc2cc(S(=O)(=O)N3CCC(C)CC3)ccc21` it is 971 s; for `Cc1ccc(-c2cc(C(=O)NC3CCCCC3)c(C)[nH]2)cc1` it is 958 s. With `CCn1cc(CCNC(=O)c2cc(F)ccc2Cl)c2cccnc21`, the RP-LC retention time was 729 s. Consider `CC1CCN(c2nccnc2Oc2ccc(C(=O)N3CCN(c4ccccn4)CC3)cc2)CC1`, for which the RP-LC retention time came to 711 s. `Cn1cc2c3c(cccc31)CN(C(=O)c1c(F)cccc1F)CC2` showed an RP-LC retention time of 920 s. Then `CCOC(=O)CNC(=O)N(C)Cc1nc2cc(C(=O)N(C)C)ccc2n1C`, with 566 s; and `CCN1C(=O)c2cccnc2Sc2cc(CNC(=O)c3ccc(F)cc3)ccc21`, with 765 s.
